According to patent US9388147B2 (Receptos, Inc., priority 2009, dated 2016):
Where two headings read alike, the source gives them in different places.

Experiments:
S1P1/EDG1 = S1P1/EDG1 (Homo sapiens, UniProt P21453); test: S1P1 CRE-bla CHOK1 reporter assay, inhibition of Forskolin induced cAMP; assay type: cell-based
Outline: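 Read-out is a FRET β-lactamase substrate (2 h, room temperature) after 4 h, 37 °C compound treatment under 2 μM Forskolin in stable S1P1-transfected CRE-bla CHO-K1 cells. Ten-point curves; non-linear regression gives EC50 for inhibition of Forskolin-stimulated cAMP.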

S1P2 = molecular target: T1, S1P2 (Homo sapiens, UniProt O95136); test: Specificity over other S1P receptors: S1P2 CRE-bla CHOK1 reporter assay; assay type: cell-based; settings: S1P2 CRE-bla CHOK1, without Forskolin; read-out: S1P2 agonist value (EC50)
T1 construct: expressed in transfected cells; host or cells: CRE-bla CHOK1
T1 sequence (O95136 whole entry, species assumed): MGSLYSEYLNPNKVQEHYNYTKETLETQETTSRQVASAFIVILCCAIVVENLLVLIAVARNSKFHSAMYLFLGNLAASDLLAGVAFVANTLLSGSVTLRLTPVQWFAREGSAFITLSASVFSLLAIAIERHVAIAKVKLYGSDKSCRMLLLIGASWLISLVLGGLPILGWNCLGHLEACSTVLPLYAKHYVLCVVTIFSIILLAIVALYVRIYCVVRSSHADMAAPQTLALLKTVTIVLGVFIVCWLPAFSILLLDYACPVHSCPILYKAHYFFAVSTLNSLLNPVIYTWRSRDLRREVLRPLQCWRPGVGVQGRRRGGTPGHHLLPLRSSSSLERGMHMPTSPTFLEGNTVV
Method: (§1) Cells were seeded into 384-well black wall/clear bottom plates at 10^4 cells/well/19.5 μl assay media (DMEM-phenol free, 0.5% charcoal/dextran stripped serum, 2 mM glutamine, 0.1 mM NEAA, 1 mM Na-Pyruvate, 25 mM Hepes) and incubated for 18 hrs at 37° C. in 5% CO2. Dose response curves (10-point) were generated in 10 mM Hepes, 0.1% Pluronic F127, in the presence of Forskolin. Cells were treated with 0.5 μl compound in the presence of 2 μM Forskolin for 4 hrs at 37° C. The FRET-based β-lactamase fluorescent substrate (LiveBLAzer™-FRET B/G Loading Kit CC4-AM; Invitrogen) was prepared according to manufacturer's directions, and incubated with cells for 2 hrs at room temperature. Plates were read at Ex:410/Em:458 and Ex:410/Em:522, and the response ratio determined. Data was analyzed by non-linear regression to determine the EC50 for inhibition of Forskolin induced cAMP.
(§2) To assess compound specificity on other S1P receptors the following cell lines were used: S1P2 CRE-bla CHOK1, S1P3-Gα15 NFAT-bla HEK293T (Invitrogen), S1P4-bla TANGO U2OS (Invitrogen), S1P5-bla TANGO U2OS (Invitrogen). The same assay set up for S1P1 was used but without Forskolin. S1P4 and S1P5 assays were performed in FreeStyle Expression medium (Invitrogen). S1P5 cells were incubated for 48 hrs in prior to treatment with compound.

S1P3 = molecular target: T2, S1P3 (Homo sapiens, UniProt Q99500); test: Specificity over other S1P receptors: S1P3-Gα15 NFAT-bla HEK293T reporter assay; assay type: cell-based; settings: without Forskolin, read-out: S1P3 agonist value (EC50)
T2 construct: host or cells: NFAT-bla HEK293T
T2 sequence (Q99500 whole entry): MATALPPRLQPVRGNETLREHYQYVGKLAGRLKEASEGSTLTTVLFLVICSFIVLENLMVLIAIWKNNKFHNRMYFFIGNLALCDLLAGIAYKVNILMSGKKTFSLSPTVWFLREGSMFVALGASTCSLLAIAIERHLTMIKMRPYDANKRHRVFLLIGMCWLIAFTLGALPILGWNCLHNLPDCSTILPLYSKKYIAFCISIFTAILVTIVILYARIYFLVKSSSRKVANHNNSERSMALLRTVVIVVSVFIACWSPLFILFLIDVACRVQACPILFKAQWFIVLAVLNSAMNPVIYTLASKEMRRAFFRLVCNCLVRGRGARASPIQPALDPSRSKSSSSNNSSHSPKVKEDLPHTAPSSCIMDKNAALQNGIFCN
Method: as §1, §2

S1P4 = molecular target: T3, S1P4 (Homo sapiens, UniProt O95977); test: Specificity over other S1P receptors: S1P4-bla TANGO U2OS assay; assay type: cell-based; settings: read-out: S1P4 agonist value (EC50)
T3 construct: Tango fusion (own knowledge: protease cleavage site plus GAL4-VP16 transcription factor at the receptor's C-terminus); host or cells: U2OS (Tango -bla)
T3 sequence (O95977 1-384): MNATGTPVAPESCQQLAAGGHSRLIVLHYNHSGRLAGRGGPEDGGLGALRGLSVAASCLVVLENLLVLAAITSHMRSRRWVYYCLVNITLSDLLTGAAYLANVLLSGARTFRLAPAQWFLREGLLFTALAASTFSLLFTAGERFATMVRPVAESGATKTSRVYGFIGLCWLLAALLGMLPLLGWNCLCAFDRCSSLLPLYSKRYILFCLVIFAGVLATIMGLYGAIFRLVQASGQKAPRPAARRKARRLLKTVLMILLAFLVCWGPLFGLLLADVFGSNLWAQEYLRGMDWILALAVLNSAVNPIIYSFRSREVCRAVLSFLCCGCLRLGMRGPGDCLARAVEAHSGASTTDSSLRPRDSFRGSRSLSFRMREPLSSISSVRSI
Method: as §1, §2

S1P5 = molecular target: T4, S1P5 (Homo sapiens, UniProt Q9H228); test: Specificity over other S1P receptors: S1P5-bla TANGO U2OS assay; assay type: cell-based; settings: read-out: S1P5 agonist value (EC50)
T4 construct: Tango fusion (own knowledge: protease cleavage site plus GAL4-VP16 transcription factor at the receptor's C-terminus); host or cells: U2OS (Tango -bla)
T4 sequence (Q9H228 whole entry, the tested form may be a part): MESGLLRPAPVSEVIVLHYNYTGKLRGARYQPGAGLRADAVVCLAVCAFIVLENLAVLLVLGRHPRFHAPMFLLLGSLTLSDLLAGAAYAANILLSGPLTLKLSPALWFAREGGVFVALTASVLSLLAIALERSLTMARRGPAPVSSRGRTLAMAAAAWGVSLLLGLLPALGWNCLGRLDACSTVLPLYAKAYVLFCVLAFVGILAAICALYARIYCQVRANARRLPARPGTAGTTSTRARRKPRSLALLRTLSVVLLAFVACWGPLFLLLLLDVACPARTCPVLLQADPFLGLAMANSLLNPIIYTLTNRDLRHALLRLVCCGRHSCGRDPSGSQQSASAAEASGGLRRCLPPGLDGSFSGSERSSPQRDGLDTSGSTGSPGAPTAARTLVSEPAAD
Method: as §1, §2

[1] = Evaluation of therapeutic index in rats: 5 or 14 day toxicology study, lung to body weight ratio; assay type: in vivo, Sprague-Dawley rat; settings: for Dose Resulting in 10% increase in lung weight: rats, oral, 5 or 14 consecutive days, interpolated from dose versus lung to body weight; for TI 5 days: 5 day toxicology study in rats
Method: All studies were conducted in non-fasted male and female Sprague-Dawely rats (Simonsen Laboratories). Rats were housed in an AAALAC accredited facility and the research was approved by the facilities Institutional Animal Care and Use Committee (IACUC). The animals were acclimated to the laboratory for at least 5 days prior to initiation of experiments.
(§3) The compounds listed in Table 6 were formulated as suspensions in a vehicle consisting of 0.5% carboxymethyl cellulose (Acros Organics) in purified water (pH adjusted to ˜2.2 with hydrochloric acid). The same formulation was used in the rat lymphopenia and toxicology studies described below. The concentration of each compound in suspension was verified to be within ±10% of the target concentration by HPLC-UV.
In the toxicology studies, three male and three female rats per group were assigned to dosing groups using body weight based randomization. A control group in each study received vehicle. All animals were dosed orally by gavage on 5 or 14-consecutive days at a dose volume of 5 mL/kg/day. The animals were observed daily for any manifestations of adverse effect. Twenty-four hours after the final study dose, the rats were anesthetized with isoflurane and a terminal blood sample was taken by intra-cardiac puncture for hematology and clinical chemistry evaluation (IDEXX Laboratories, Sacramento, Calif.). The lungs with trachea were collected, weighed, and then prepared for histology by perfusion with 10% neutral buffered formalin via the trachea. The internally fixed lungs were then preserved in 10% neutral buffered formalin and submitted for histological examination (IDEXX).
The dose of each compound resulting in a 10% increase in the lung to terminal body weight ratio was estimated for each compound by linear interpolation. The therapeutic index was estimated as the ratio of the dose producing 10% lung weight increase to the dose producing 50% T-Cell depletion.
(§4) The dose producing a 10% increase in lung to body weight ratio was interpolated from a plot of dose versus lung to body weight. The lymphopenia response was measured 24 hours following the final dose of a 3-5 day multiple dose regimen.

peripheral T-cell counts = test: Lymphopenia in rats, 3-5 day multiple dose regimen; assay type: in vivo, rat; settings: female rats, oral, 24 h after final dose of a 3-5 day multiple dose regimen
Method: In rats: Female rats (Simonsen Laboratories, Gilroy Calif.) were housed in an ALAAC accredited facility and the research was approved by the facilities Institutional Animal Care and Use Committee (IACUC). The animals were acclimated to the laboratory for at least 5 days prior to initiation of experiments. Rats (n=3/compound/time-point) were dosed by oral gavage with 1 mg/kg compound formulated in a vehicle consisting of 5% DMS0/5% Tween 20 and 90% 0.1N HCL. Control rats were dosed PO with the vehicle. Whole blood was collected from isoflurane anesthetized rats via the retro-orbital sinus and terminal samples were collected by cardiac puncture into EDTA. Whole blood was incubated with mouse anti-rat CD32 (BD #550271), PE-mouse anti-rat CD45R/B220 (BD #554881), PECy5-mouse anti-rat CD4 (BD #554839), and APC-mouse anti-rat CD8a (eBioscience #17-0084) for 30 minutes on ice. Red blood cells were lysed using BD Pharm Lyse Lysing buffer (#555899) and white blood cells were analyzed with a BD FACSArray. Lymphopenia was expressed as the % of white blood cells that were CD4 or CD8 positive T cells. The overall lymphopenia response over 24 h was estimated by calculating the area under the effect curve (AUEC) using the linear trapezoidal rule.
as §3
Prior to the conduct of toxicology studies, the effect of three to five daily doses of each compound on peripheral T-cell counts of female rats was determined (see lymphopenia measurements in rats above). In these lymphopenia studies, blood samples were collected onto EDTA at intervals after the final study dose. The collection times were not identical for each study, however, all studies included a sample collected 24 hours after the final dose. The lymphopenia data was used as a biomarker to select equally pharmacologically active doses for the subsequent toxicology study. […] The high dose in the toxicology study represented a ≧20-fold increment over the low dose.
as §4

[2] = S1P1 CRE-bla CHOK1, with Forskolin, read-out: S1P1 agonist value (EC50)
[3] = agonist activity range, S1P1 CRE-bla CHOK1, 2 μM Forskolin, read-out: S1P1 ACTIVITY
[4] = therapeutic index: dose producing 10% lung weight increase / dose producing 50% T-cell depletion

Chain of S1P1/EDG1 (P21453 whole entry): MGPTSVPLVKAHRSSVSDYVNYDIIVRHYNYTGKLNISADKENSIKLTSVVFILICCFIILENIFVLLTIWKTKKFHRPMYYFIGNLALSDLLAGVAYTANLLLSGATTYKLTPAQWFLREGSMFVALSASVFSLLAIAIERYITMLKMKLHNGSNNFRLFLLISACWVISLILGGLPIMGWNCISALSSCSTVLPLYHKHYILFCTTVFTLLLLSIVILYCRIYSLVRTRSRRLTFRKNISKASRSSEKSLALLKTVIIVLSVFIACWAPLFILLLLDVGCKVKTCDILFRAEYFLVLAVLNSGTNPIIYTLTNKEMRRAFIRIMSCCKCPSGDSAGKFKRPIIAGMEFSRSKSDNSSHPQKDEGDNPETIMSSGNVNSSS

Row | SMILES | EC50 (S1P1/EDG1; [2]) [nM] | EC50 (S1P1/EDG1; [3]) [nM] | EC50 (S1P2) [nM] | EC50 (S1P3) [nM] | EC50 (S1P4) [nM] | EC50 (S1P5) [nM] | Dose Resulting in 10% increase in lung weight [1] [mg/kg] | TI 5 days [1, 4] | Dose Producing 50% lymphopenia (peripheral T-cell counts) [mg/kg] | TI 14 days ([1]; therapeutic index: dose producing 10% lung weight increase / dose producing 50% T-cell depletion, 14 day toxicology study in rats)
1 | CC(C)Oc1ccc(-c2nc(-c3cccc4c3CC[C@@H]4NS(=O)(=O)CCO)no2)cc1C#N [Compound 187, (S)-N-(4-(5-(3-cyano-4-isopropoxyphenyl)-1,2,4-oxadiazol-3-yl)-2,3-dihydro-1H-inden-1-yl)-2-hydroxyethanesulfonamide] | 0.1 | 0.05 to 0.5 | > 10000 | > 10000 | > 10000 | 57.1 | 5.0 | 10 | 0.50 | 
2 | COCCS(=O)(=O)N[C@@H]1CCc2c(-c3noc(-c4ccc(OC(C)C)c(C#N)c4)n3)cccc21 [Compound 163, (R)-N-(4-(5-(3 cyano-4-isopropoxyphenyl)-1,2,4-oxadiazol-3-yl)-2,3-dihydro-1H-inden-1-yl)-2-methoxyethanesulfonamide] | 0.09 | 0.05 to 0.5 | > 10000 | > 10000 | > 10000 | 50 | 2.1 |  | 0.07 | 30
3 | CCOc1ccc(-c2nc(-c3cccc4c3CCC4NCCO)no2)cc1OCC (racemic) [Compound 253, (+/−)-2-((4-(5-(3,4,diethoxyphenyl)-1,2,4-oxadiazol-3-yl)-2,3-dihydro-1H-inden-1-yl)amino)ethanol, reference compound] | 2.88 | 0.5 to 5 | > 1000 | 4300 | 3250 | 136 |  |  |  | 
4 | CC(C)Oc1ccc(-c2nc(-c3cccc4c3CC[C@@H]4NC(=O)N3CC(O)C3)no2)cc1C#N [Compound 235] | 0.1 | 0.05 to 0.5 | > 10000 | > 10000 | > 10000 | 39.8 | 11.3 | 6 | 2.00 | 
5 | COCCS(=O)(=O)N[C@H]1CCc2c(-c3noc(-c4ccc(OC(C)C)c(C#N)c4)n3)cccc21 [Compound 164, (S)-N-(4-(5-(3-cyano-4-isopropoxyphenyl)-1,2,4-oxadiazol-3-yl)-2,3-dihydro-1H-inden-1-yl)-2-methoxyethanesulfonamide] | 0.36 | 0.05 to 0.5 | > 10000 | > 10000 | > 10000 | 174 | 5.0 | 20 | 0.25 | 
6 | CC(C)Oc1ccc(-c2nc(-c3cccc4c3CC[C@H]4NS(=O)(=O)CCO)no2)cc1C#N [Compound 186, (R)-N-(4-(5-(3 cyano-4-isopropoxyphenyl)-1,2,4-oxadiazol-3-yl)-2,3-dihydro-1H-inden-1-yl)-2-hydroxyethanesulfonamide] | 0.05 | 0.05 to 0.5 | 1570 | > 10000 | 1210 | 32.3 | 1.1 | 16 | 0.07 | 
7 | CC(C)Oc1ccc(-c2nc(-c3cccc4c3CC[C@H]4NC(=O)N3CC(O)C3)no2)cc1C#N [Compound 234, (R)-N-(4-(5-(3 cyano-4-isopropoxyphenyl)-1,2,4-oxadiazol-3-yl)-2,3-dihydro-1H-inden-1-yl)-3-hydroxyazetidine-1-carboxamide] | 0.1 | 0.05 to 0.5 | > 10000 | > 10000 | 739 | 76.1 | 21.3 | 24 | 0.90 | 
